Measurements from patent US20020081566A1, “HIV PROTEIN EPITOPES IMMUNOLOGICALLY HOMOLOGOUS TO HLA” (priority 1992, published 2002).

Tests used:
viral gp160 = target: T1, viral gp160 (Human immunodeficiency virus type 1 group M subtype B, UniProt P03377); type: binding, HIV; settings: for binding to viral gp160 of AIDS serum antibodies pre-adsorbed on the peptide and eluted: sera from AIDS affected subjects, HIV western blot stripes, FIGS. 5 and 6; for reactivity of sera / antibodies raised against native gp160 in HIV positive subjects with the peptide region: sera from HIV positive subjects
T1 construct: purchased SORIN BIOMEDICA, Saluggia, Italy
Experimental: Sera from AIDS affected subjects are immunoadsorbed on columns of either S. MAP HIV, or MAP HLA 11 or MAP HLA 12 peptide coupled Sepharose (CNBR activated sepharose 4B from […]) and eluted. 1 ml of Sepharose/peptide equilibrated with 0.1 M TRIS HCl pH 8 and 0.5 M NaCl buffer is incubated for 16 hours with 100 μl of serum, washed with 0.1 M TRIS HCl ph 8 and 0.5 M NaCl. The bound antibodies are eluted with a buffer containing 0.2 M glycine pH 2 and 0.5 M NaCl. The eluted antibodies are assayed on HIV western blot commercial stripes (SORIN BIOMEDICA, Saluggia, Italy) and detected using the chemio-luminescence system from […]. […] Lane M is obtained from one of the “in toto” sera and used as control.
The same test is carried out using two sera of AIDS affected patients (FIG. 6), pre-adsorbed with the S. MAP HIV peptide (lanes A and B) or with the HIV 9 peptide (lanes C and D), and eluted.

[1] = target: recombinant gp160 protein (Human immunodeficiency virus type 1 group M subtype B, UniProt P03377); settings: BALB/c female mice, subcutaneous, Freund's incomplete adjuvant, after third immunization; compared with control peptide serum (NMS); FIG. 1
Experimental: S.MAP HIV and S. MAP HLA peptides are injected subcutaneously to BALB/c female mice together with Freund's incomplete adjuvant. After the third immunization (for a total of three immunizations at three week intervals) mice sera are tested by an ELISA assay with the recombinant gp160 protein (from Transgene, Strasbourg) as follows: microtiter plastic wells (NUNC) are coated with 0.2 μg of protein resuspended in phospahte buffer pH 9, for 1.5 hours at 37° C., followed by washing with phosphate buffer pH 7, and by further incubating for 1 hour at 37° C. with bovine serum albumin (BSA, 1 mg/ml), to saturate the free sites of solid phase. After three washings, diluted sera in PBS, comprising BSA 1% w/v, are incubated with the coated wells for 1 hour at 37° C. After five washings in PBS, a rabbit anti-mouse Igs serum (SIGMA), 1/1000 diluted, is added. After 45 min. incubation at 37° C., wells are washed five times and 100 μl of chromogen substrate is added to each well (SORIN BIOMEDICA, Saluggia, Italy). The adsorbance is read with an automatic ELISA reader (BIORAD).

[2] = system: syncytium between HIV infected 8E51 LAV cells and not infected CD4+ MOLT3 cells; test: Syncytium formation inhibition assay; type: cell-based; settings: mice sera; pre-immunization sera as specificity control; FIG. 9

T1 sequence (P03377 33-861): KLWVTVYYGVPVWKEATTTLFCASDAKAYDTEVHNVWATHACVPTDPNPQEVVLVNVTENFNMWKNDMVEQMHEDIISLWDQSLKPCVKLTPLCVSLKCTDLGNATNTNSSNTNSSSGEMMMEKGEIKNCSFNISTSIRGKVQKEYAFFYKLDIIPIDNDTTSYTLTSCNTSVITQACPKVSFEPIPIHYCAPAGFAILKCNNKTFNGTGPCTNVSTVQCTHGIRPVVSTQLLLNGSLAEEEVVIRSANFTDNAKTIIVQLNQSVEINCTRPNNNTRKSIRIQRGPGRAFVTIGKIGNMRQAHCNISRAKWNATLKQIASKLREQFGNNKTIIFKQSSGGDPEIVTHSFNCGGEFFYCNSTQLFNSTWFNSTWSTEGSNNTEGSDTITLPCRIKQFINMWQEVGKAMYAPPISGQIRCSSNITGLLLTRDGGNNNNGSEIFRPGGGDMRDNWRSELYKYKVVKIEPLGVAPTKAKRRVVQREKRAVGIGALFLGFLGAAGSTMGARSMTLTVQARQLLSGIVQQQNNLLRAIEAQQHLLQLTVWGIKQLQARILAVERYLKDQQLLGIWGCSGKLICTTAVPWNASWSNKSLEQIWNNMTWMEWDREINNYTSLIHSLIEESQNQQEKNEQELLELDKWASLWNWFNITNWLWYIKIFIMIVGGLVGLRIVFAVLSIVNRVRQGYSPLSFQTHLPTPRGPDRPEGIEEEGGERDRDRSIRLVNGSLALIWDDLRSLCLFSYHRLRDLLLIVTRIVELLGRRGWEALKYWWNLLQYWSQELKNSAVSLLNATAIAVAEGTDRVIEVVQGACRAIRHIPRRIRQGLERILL
recombinant gp160 protein, sequence (P03377 33-861): as above

Which “binding to viral gp160 of AIDS serum antibodies pre-adsorbed on the peptide and eluted” value (shortened to “binding to viral gp160”) (viral gp160) does the source give for IEPLGVAPT [MAP HIV 9] here?
Its value is “do not show any reactivity”.

And the “reactivity of sera / antibodies raised against native gp160 in HIV positive subjects with the peptide region” value (shortened to “reactivity of sera / antibodies raised”) (viral gp160)?
Its value is “none of sera from HIV positive subjects are reactive”.

With NLRKLRGYY [MAP HLA 12] as the sequence, how does the “binding to a 45 KD protein (likely HLA heavy chains) of AIDS serum antibodies pre-adsorbed on the peptide” value (viral gp160; one serum, lane E, FIG. 5) read?
Its value is “also bind to a 45 KD protein”.

And the “binding to viral gp160” value (viral gp160)?
The value was “bind similarly to the viral gp160”.

PTKAKRRVV [MAP HIV 12] was tested. Which “reactivity of sera / antibodies raised” value (viral gp160) did it give?
The value was “react”.

SELYKYKVVK [MAP HIV 11] was tested. Which “reactivity of sera / antibodies raised” value (viral gp160) did it give?
Its value is “react”.

Which “reaction of sera of peptide immunized mice with the recombinant gp160 protein” value [1] does the source give for SELYKYKVVKIEPLGVAPTKAKRRVV [S. MAP HIV] here?
Its value is “react at significantly higher level”.

And the “neutralization of viral fusion (syncytium inhibition) by antibodies of mice immunized with the peptide” value [2]?
The value was “ability to neutralize the viral fusion”.

And the “binding to viral gp160” value (viral gp160)?
The value was “bind similarly to the viral gp160”.

For TQKYKRQAQ [MAP HLA 11], which “binding to viral gp160” value (viral gp160) is on record?
The value was “bind similarly to the viral gp160”.

“TQKYKRQAQADRVNLRKLRGYY [S. MAP HLA, synthetic peptide from HLA class I heavy chain α-1 domain, allele Cw4]” was tested. Which “reaction of sera of peptide immunized mice with the recombinant gp160 protein” value [1] did it give?
The value was “react specifically”.

What about the “neutralization of viral fusion (syncytium inhibition) by antibodies of mice immunized with the peptide” value [2] of the same sequence?
Its value is “same ability to neutralize the viral fusion”.
